Test results published in the NIST ThermoML archive (doi:10.1016/j.jct.2005.03.011).
± gives the expanded uncertainty stated by the source.

Settings: Crystal; for mass density: 298 K, 101.33 kPa, Pycnometric method; for Normal melting temperature: DTA

SMILES | mass density | Normal melting temperature
Clc1ccc2ccccc2n1 [2-chloroquinoline] | 1246 ± 2 kg/m3 | 38.4 ± 0.5 °C
Clc1ccc2c(Cl)ccnc2c1 [4,7-dichloroquinoline] | – | 92.4 ± 0.5 °C
Clc1ccnc2ccccc12 [4-chloroquinoline] | 1251 ± 2 kg/m3 | 35 ± 0.5 °C
Clc1ccc2ncccc2c1 [6-chloroquinoline] | – | 46 ± 0.5 °C
